Test results reported in publication PMC7450530 (Biochemistry, 2019).

Experiments:
[1] = target: T1, M. tuberculosis GyrA^A90V gyrase (Mycobacterium tuberculosis, UniProt P9WG47, A90V); type: biochemical
[2] = target: T1, M. tuberculosis GyrA^A90V gyrase; type: biochemical; remark: listed apart in the source

SMILES: CC[C@H](C)n1cc(C)c2c(C(=O)NCc3c(C)cc(C)[nH]c3=O)cc(-c3ccc(N4CCNCC4)nc3)cc21 [GSK126]
- potency in supercoiling inhibition compared to the wild-type enzyme [1]: potency dropped considerably
- single-stranded DNA cleavage enhancement compared to wild-type [2]: induced substantially more single-stranded DNA cleavage
